Test results: patent US9981960B2, “Pyrrolidine compound and application as melanocortin receptor agonist” (MITSUBISHI TANABE PHARMA CORPORATION, priority 2014, dated 2018)

Molecular target: T1, Human MC1R (Homo sapiens, UniProt Q01726)
T1 construct: endogenous in cells; host or cells: human melanoma cell line HBL
Assay: MCR agonist measurement (cAMP measurement), human MC1R agonist activity in human melanoma cell line HBL
Assay type: cell-based
Details: HBL cells; for EC50: 37° C. for 30 minutes, intracellular cAMP by fluorescence method; for Human MC1R IA %: Intrinsic Activity, vehicle cAMP = 0%, αMSH at 10^-6 M = 100%
Procedure: (1) Method for Culturing Cells
Human MC1R agonist activity measurement was carried out by using human melanoma cell line HBL. Culture of HBL: F-10 Nutrient Mixture containing 10% FCS and Penicillin-streptomycin was used in the culture.
(2) cAMP Assay and Data Calculation
Each compound solution having each concentration was mixed with cAMP assay buffer (HBSS (Hank's Balanced Salt Solution) containing 10 mM HEPES and 0.1% BSA), and dispensed into 96 well plate. HBL was suspended in cAMP assay buffer containing 0.5 mM IBMX so that the concentrate became 5×10^4/mL, dispensed into the above 96 well plate, then mixed, left to stand at 37° C. for 30 minutes, and then the intracellular […] concentration was measured by fluorescence method using Envision (ex. 320 nm, em. 590 nm and 665 nm).

T1 sequence (Q01726 whole entry): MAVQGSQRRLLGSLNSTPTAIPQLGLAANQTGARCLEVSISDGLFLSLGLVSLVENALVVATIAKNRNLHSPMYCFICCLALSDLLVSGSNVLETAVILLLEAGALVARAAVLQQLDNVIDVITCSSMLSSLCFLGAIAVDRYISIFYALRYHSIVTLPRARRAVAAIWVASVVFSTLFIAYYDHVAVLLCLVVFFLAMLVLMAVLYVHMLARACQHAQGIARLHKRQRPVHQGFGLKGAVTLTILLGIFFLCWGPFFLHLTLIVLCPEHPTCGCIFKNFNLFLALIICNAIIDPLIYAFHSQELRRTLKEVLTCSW

EC50 [nM] | Human MC1R IA % [%] | SMILES
0.94 | 111 | COC[C@@H]1C[C@@H](c2ccc(C(F)(F)F)cc2N2CCC(C(=O)O)CC2)CN1C(=O)[C@]1(F)CN(c2ccnc(C)c2)C[C@H]1c1ccc(OC)cc1 [Example 68]
24 | 74 | COC[C@H]1CN(C(=O)[C@]2(OC)CN(C3CCCC3)C[C@H]2c2ccc(OC)cc2)C[C@@H]1c1ccc(C(F)(F)F)cc1N1CCC(C(=O)O)CC1 [Example 125]
42 | 86 | COc1ccc([C@@H]2CN(C(C)(C)C)C[C@@]2(F)C(=O)N2CCC(c3ccc(C(F)(F)F)cc3OCCCc3nnn[nH]3)CC2)cc1.Cl [Example 280, [(3R,4R)-1-tert-butyl-3-fluoro-4-(4-methoxyphenyl)pyrrolidin-3-yl](4-{2-[3-(1H-tetrazol-5-yl)propoxy]-4-(trifluoromethyl)phenyl}piperidin-1-yl)methanone hydrochloride]
7.4 | 80 | COc1ccc([C@@H]2CN(C(C)(C)C)C[C@@]2(F)C(=O)N2CCC(c3ccc(C(F)(F)F)cc3[C@H]3C[C@H](C(=O)O)C3)CC2)cc1 [Example 177]
11 | 77 | COc1ccc([C@@H]2CN(C3CCCC3)C[C@@]2(F)C(=O)N2C[C@H](c3ccc(C(F)(F)F)cc3N3CCC(C(=O)O)CC3)[C@@H](C(C)(C)O)C2)cc1.Cl.Cl [Example 228, 1-{2-[(3S,4R)-1-{[(3R,4R)-1-cyclopentyl-3-fluoro-4-(4-methoxyphenyl)pyrrolidin-3-yl]carbonyl}-4-(2-hydroxypropan-2-yl)pyrrolidin-3-yl]-5-(trifluoromethyl)phenyl}piperidine-4-carboxylic acid dihydrochloride]
37 | 149 | COc1ccc([C@@H]2CN(C(C)(C)C)C[C@@]2(F)C(=O)N2CC(c3ccc(C(F)(F)F)cc3N3CCC(C(=O)N(C)C)CC3)C2)cc1 [Example 249]
115 | 69 | COc1ccc([C@@H]2CN(C3CCOC3)C[C@@]2(F)C(=O)N2CCC(c3ccc(C(F)(F)F)cc3N3CCC(C(=O)O)CC3)CC2)cc1 (stereo partly shown) [Example 290]
6.7 | 104 | COc1ccc([C@@H]2CN(C3CCN(C(CF)CF)CC3)C[C@@]2(F)C(=O)N2CC[C@@H](c3ccc(C(F)(F)F)cc3N3CCC(C(=O)O)CC3)C2)cc1 [Example 219]
0.47 | 96 | COC[C@@H]1C[C@@H](c2ccc(C(F)(F)F)cc2N2CCC(C(=O)O)CC2)CN1C(=O)[C@]1(F)CN([C@H]2CC[C@H](OC)CC2)C[C@H]1c1ccc(OC)cc1 [Example 135]
5.1 | 92 | COC[C@H]1CN(C(=O)[C@]2(F)CN(C3CCCC3)C[C@H]2c2ccc(OC)cc2)C[C@@H]1c1ccc(C(F)(F)F)cc1N1CCC(C(=O)N(C)C)CC1 [Example 248]
31 | 107 | COC[C@H]1CN(C(=O)[C@]2(F)CN(C3CCCC3)C[C@H]2c2ccc(OC)cc2)C[C@@H]1c1cc(F)c(F)cc1N1CCC(C(=O)O)CC1 [Example 201]
1.1 | 85 | COC[C@@H]1C[C@@H](c2ccc(C(F)(F)F)cc2N2CCC(C(=O)O)CC2)CN1C(=O)[C@]1(OC)CN(C2CCCCCC2)C[C@H]1c1ccc(OC)cc1 [Example 154]
39 | 46 | COC[C@H]1CN(C(=O)[C@]2(F)CN(C3CCOCC3)C[C@H]2c2ccc(OC)cc2)C[C@@H]1c1ccc(C(F)(F)F)cc1N1CCC(C#N)CC1.Cl.Cl [Example 278, 1-{2-[(3S,4R)-1-{[(3R,4R)-3-fluoro-4-(4-methoxyphenyl)-1-(tetrahydro-2H-pyran-4-yl)pyrrolidin-3-yl]carbonyl}-4-(methoxymethyl)pyrrolidin-3-yl]-5-(trifluoromethyl)phenyl}piperidine-4-carbonitrile dihydrochloride]
56 | 90 | COc1ccc([C@@H]2CN(C(C)(C)C)C[C@@]2(F)C(=O)N2CCC(C#N)(c3ccc(C(F)(F)F)cc3-c3ccc(C(=O)O)cc3)CC2)cc1 [Example 87]
7.3 | 106 | COC[C@@H]1C[C@@H](c2ccc(C(F)(F)F)cc2N2CCC(C(=O)O)CC2)CN1C(=O)[C@]1(F)CN(C2CCOCC2)C[C@H]1c1ccc(OC)cc1 [Example 137]
29 | 83 | COC[C@@]1(OC)CN(C(=O)[C@]2(F)CN([C@H]3CC[C@H](OC)CC3)C[C@H]2c2ccc(OC)cc2)C[C@@H]1c1ccc(C(F)(F)F)cc1N1CCC(C(=O)O)CC1 [Example 156]
14 | 59 | COc1ccc([C@@H]2CN(C3CCOCC3)C[C@@]2(F)C(=O)N2CC[C@@H](c3ccc(C(F)(F)F)cc3N3CCC(C(=O)O)CC3)C2)cc1 [Example 215]
85 | 114 | COc1ccc([C@@H]2CN(C(C)(C)C)C[C@@]2(F)C(=O)N2C[C@H](c3ccc(C(F)(F)F)cc3N3CCC(C(=O)O)CC3)[C@@H](C#N)C2)cc1.Cl.Cl [Example 227, 1-{2-[(3S,4R)-1-{[(3R,4R)-1-tert-butyl-3-fluoro-4-(4-methoxyphenyl)pyrrolidin-3-yl]carbonyl}-4-cyanopyrrolidin-3-yl]-5-(trifluoromethyl)phenyl}piperidine-4-carboxylic acid dihydrochloride]

EC50 [nM] | Human MC1R IA % [%] | SMILES
– | 88 | COC[C@H]1CN(C(=O)[C@]2(F)CN(C3CCCC3)C[C@H]2c2ccc(OC)cc2)C[C@@H]1c1ccc(C(F)(F)F)cc1N1CCC(C(=O)O)CC1 [Example 19]
1.2 | 98 | COC[C@H]1CN(C(=O)[C@]2(F)CN(c3ccnc(C)c3)C[C@H]2c2ccc(OC)cc2)C[C@@H]1c1ccc(C(F)(F)F)cc1N1CCC(C(=O)O)CC1 [Example 59]
40 | 119 | COc1ccc([C@@H]2CN(C(C)(C)C)C[C@@]2(F)C(=O)N2CC(c3ccc(C(F)(F)F)cc3N3CCC(C(=O)O)CC3)C2)cc1 [Example 84]
2 | 78 | COC[C@@H]1C[C@@H](c2ccc(C(F)(F)F)cc2N2CCC(C(=O)O)CC2)CN1C(=O)[C@]1(F)CN(c2ccnc(C)n2)C[C@H]1c1ccc(OC)cc1 [Example 67]
– | 93 | COc1ccc([C@@H]2CN(C3CCCC3)C[C@@]2(F)C(=O)N2C[C@H](c3ccc(C(F)(F)F)cc3N3CCC(C(=O)O)CC3)C[C@H]2CC#N)cc1 [Example 300]
17 | 103 | COc1ccc([C@@H]2CN(C3CCN(C(CF)CF)CC3)C[C@@]2(F)C(=O)N2CCC(c3ccc(C(F)(F)F)cc3N3CCC(C(=O)O)CC3)CC2)cc1 [Example 193]
0.8 | 80 | COC[C@@H]1C[C@@H](c2ccc(C(F)(F)F)cc2N2CCC(C(=O)O)CC2)CN1C(=O)[C@]1(F)CN(C2CCC2)C[C@H]1c1ccc(OC)cc1 [Example 139]
189 | 71 | COc1ccc([C@@H]2CN(C(C)(C)C)C[C@@]2(F)C(=O)N2CC[C@H](c3ccc(C(F)(F)F)cc3N3CCC(C(=O)O)CC3)C2)cc1.Cl.Cl [Example 286b, 1-{2-[(3R)-1-{[(3R,4R)-1-tert-butyl-3-fluoro-4-(4-methoxyphenyl)pyrrolidin-3-yl]carbonyl}pyrrolidin-3-yl]-5-(trifluoromethyl)phenyl}piperidine-4-carboxylic acid dihydrochloride]
– | 86 | COc1ccc([C@@H]2CN(C3CCCC3)C[C@@]2(F)C(=O)N2C[C@H](c3ccc(C(F)(F)F)cc3N3CCC(C(=O)O)CC3)C[C@H]2CC#N)cc1 [Example 105]
24 | 92 | COC[C@H]1CN(C(=O)[C@]2(F)CN(c3ccc(C)nn3)C[C@H]2c2ccc(OC)cc2)C[C@@H]1c1ccc(C(F)(F)F)cc1N1CCC(C(=O)O)CC1 [Example 63]
49 | 83 | COc1ccc([C@@H]2CN(C(C)(C)C)C[C@@]2(F)C(=O)N2CCC(c3ccc(C(F)(F)F)cc3N3C[C@@H]4[C@H](C3)[C@H]4C(=O)O)CC2)cc1 [Example 94]
38 | 67 | COc1ccc([C@@H]2CN(C(C)(C)C)C[C@@]2(F)C(=O)N2CCC(c3ccc(C(F)(F)F)cc3N3CCC(N(C)C)CC3)CC2)cc1 [Example 205]
20 | 36 | COc1ccc([C@@H]2CN(C3CCCC3)C[C@@]2(F)C(=O)N2CCC=C(c3ccc(C(F)(F)F)cc3N3CCC(C(=O)O)CC3)C2)cc1 [Example 163]
0.76 | 96 | COC[C@@H]1C[C@@H](c2ccc(C(F)(F)F)cc2N2CCC(C(=O)O)CC2)CN1C(=O)[C@]1(F)CN([C@H]2CC[C@H](C#N)CC2)C[C@H]1c1ccc(OC)cc1 [Example 143]
0.75 | 118 | CCO[C@H]1CC[C@H](N2C[C@@H](c3ccc(OC)cc3)[C@](OC)(C(=O)N3C[C@H](c4ccc(C(F)(F)F)cc4N4CCC(C(=O)O)CC4)C[C@H]3COC)C2)CC1 [Example 146]
734 | 67 | COc1ccc([C@@H]2CN(C3CCCC3)C[C@@]2(F)C(=O)N2CCCC(c3ccc(C(F)(F)F)cc3N3CCC(C(=O)O)CC3)C2)cc1 (single isomer, unassigned) [Example 291]
14 | 102 | COC[C@H]1CN(C(=O)[C@]2(F)CN([C@H]3CC[C@H](OC)CC3)C[C@H]2c2ccc(OC)cc2)C[C@@H]1c1ccc(C(F)(F)F)cc1N1CCC(C)(C(=O)O)CC1 [Example 103]
